According to the supplement of paper PMC7108870:

Columns and labels:
HEK293sieSTAT3(Y640F) [1] = experiment: drug sensitivity score (DSS), cytotoxicity CellTox Green (DSS (dimensionless)); higher = more cytotoxic; extreme values may be limits of the assay; settings: 72 h; STAT3 variant: Y640F (constitutively active)
Outline: (§1)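 HEK293 cells bearing a STAT3-dependent luciferase reporter and overexpressing wild-type or mutant STAT3 were incubated with compounds at 5 concentrations in 10-fold steps for 72 hours at 37°C and 5% CO2. CellTox Green fluorescence and then CellTiter-Glo luminescence were measured, and values were normalised to negative and positive control wells. In Breeze, a drug sensitivity score was computed from the dose-response curve area.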

HEK293sieSTAT3(wt) [2] = experiment: as above; settings: 72 h; STAT3 variant: wild type
Outline: as §1

HEK293sieSTAT3(Y640F) [3] = experiment: drug sensitivity score (DSS), viability CellTiter-Glo (DSS (dimensionless)); higher = more growth inhibition; extreme values may be limits of the assay; settings: 72 h; STAT3 variant: Y640F (constitutively active)
Outline: as §1

HEK293sieSTAT3(wt) [4] = experiment: as above; settings: 72 h; STAT3 variant: wild type
Outline: as §1

Row | Structure (SMILES) | drug sensitivity score (HEK293sieSTAT3(Y640F) [1]) | drug sensitivity score (HEK293sieSTAT3(wt) [2]) | drug sensitivity score (HEK293sieSTAT3(Y640F) [3]) | drug sensitivity score (HEK293sieSTAT3(wt) [4])
1 | CC/C(=C(\c1ccccc1)c1ccc(OCCN(C)C)cc1)c1ccccc1 [Tamoxifen] (top concentration tested 10000 nM) | 2.88 | 8.77 | 4.47 | 5.42
2 | CNC(=O)c1cc(Oc2ccc(NC(=O)Nc3cc(C(C)(C)C)nn3-c3ccc4ncccc4c3)c(F)c2)ccn1 [Rebastinib] (top concentration tested 1000 nM) | 0 | 1.16 | 0 | 0
3 | O=C(c1cccc(Cl)c1F)N1CCN(Cc2cccc(Nc3nccs3)n2)CC1 [MK-8745] (top concentration tested 2500 nM) | 0 | 1.16 | 0.11 | 3.99
4 | CC(C)[C@@H](CS(=O)(=O)C(C)C)N1C(=O)[C@@](C)(CC(=O)O)C[C@H](c2cccc(Cl)c2)[C@H]1c1ccc(Cl)cc1 [AMG-232] (top concentration tested 1000 nM) | 0 | 0 | 0 | 0
5 | O=C(/C=C/c1cccc(S(=O)(=O)Nc2ccccc2)c1)NO [Belinostat] (top concentration tested 10000 nM) | 8.83 | 8.71 | 16.9 | 13.1
6 | CCC1(c2ccc(N)cc2)CCC(=O)NC1=O (configuration not stated) [Aminoglutethimide] (top concentration tested 10000 nM) | 0 | 0 | 0.16 | 0.06
7 | CN1CCN(c2nc(C3=C(c4c[nH]c5ccccc45)C(=O)NC3=O)c3ccccc3n2)CC1 [Sotrastaurin] (top concentration tested 10000 nM) | 3 | 0.69 | 3.63 | 5.78
8 | CC(C)C(=O)Nc1ccc([N+](=O)[O-])c(C(F)(F)F)c1 [Flutamide] (top concentration tested 10000 nM) | 0 | 0 | 0.25 | 0
9 | CC(=O)NCC(=O)N1[C@@H]2CC[C@H]1c1ccc(Nc3ncc(C(F)(F)F)c(NC4CCC4)n3)cc12 (top concentration tested 10000 nM) | 1.98 | 8.9 | 13.2 | 16.8
10 | CN(C[C@@H]1COCCO1)S(=O)(=O)Nc1ccc2ccc3ncc(-c4cnn(C)c4)cc3c(=O)c2c1 [MK-2461] (top concentration tested 10000 nM) | 0 | 0 | 3.63 | 3.5
11 | Cc1c(F)cc(C(=O)NC2CC2)cc1-c1ccc(C(=O)NCC(C)(C)C)cn1 [Losmapimod] (top concentration tested 10000 nM) | 0 | 0 | 0.91 | 0
12 | CN1CC[C@H](c2c(O)cc(O)c3c(=O)cc(-c4ccccc4Cl)oc23)[C@H](O)C1 [Alvocidib] (top concentration tested 10000 nM) | 9.09 | 17.1 | 20.1 | 24.4
13 | CCNC(=O)Nc1ccc(-c2nc3c(c(N4CCOC[C@@H]4C)n2)CCN(C2COC2)C3)cc1 [RG-7603] (top concentration tested 2500 nM) | 0 | 0 | 6.22 | 8.47
14 | CNC(=O)c1ccc(-c2cnc3ncc(Cc4ccc5ncccc5c4)n3n2)cc1F [NVP-INC280] (top concentration tested 1000 nM) | 0 | 0 | 3.02 | 2.77
15 | COc1ccc(Cl)c(Nc2nc3ccccc3nc2NS(=O)(=O)c2cccc(NC(=O)C(C)(C)N)c2)c1 [Pilaralisib] (top concentration tested 2500 nM) | 0 | 0 | 6.22 | 3.92
16 | CC1(C)CNc2cc(NC(=O)c3cccnc3NCc3ccncc3)ccc21 [Motesanib] (top concentration tested 10000 nM) | 0.35 | 0.6 | 2.6 | 1.53
17 | C=CC(=O)N1CCC[C@@H](n2nc(-c3ccc(Oc4ccccc4)cc3)c3c(N)ncnc32)C1 [Ibrutinib] (top concentration tested 1000 nM) | 0.94 | 3.43 | 0.59 | 2.79
18 | CCCCC/C=C/C=C1/C(=O)C=C[C@@H]1C/C=C\CCCC(=O)O [15D-PGJ2] (top concentration tested 3000 nM) | 0 | 0 | 1.33 | 0
19 | O=c1[nH]c(C2CCCN2)nc2c1oc1ccc(Cl)cc12 (configuration not stated) (top concentration tested 10000 nM) | 0 | 0 | 5.66 | 6.39
20 | CC(C)C[C@@H](C(=O)N[C@H](C(=O)OC1CCCC1)c1ccccc1)[C@H](O)C(=O)NO [Tosedostat] (top concentration tested 10000 nM) | 1.4 | 8.66 | 3.46 | 6.78
21 | O=S(=O)(c1cccc2cnccc12)N1CCCNCC1 [Fasudil] (top concentration tested 50000 nM) | 2.11 | 4.45 | 4.74 | 3.23
22 | CCn1c(C(=O)N(C2CC2)C2CC2)cc2c3c(ncn3C)c(Nc3cc(C)n(C)n3)nc21 (top concentration tested 10000 nM) | 0 | 0 | 0.09 | 0.76

Row | Structure (SMILES) | drug sensitivity score (HEK293sieSTAT3(Y640F) [1]) | drug sensitivity score (HEK293sieSTAT3(wt) [2]) | drug sensitivity score (HEK293sieSTAT3(Y640F) [3]) | drug sensitivity score (HEK293sieSTAT3(wt) [4])
23 | Nc1nc(Cl)nc2c1ncn2[C@@H]1O[C@H](CO)[C@@H](O)[C@@H]1F [Clofarabine] (top concentration tested 10000 nM) | 3.51 | 7.13 | 18.6 | 20.3
24 | c1cn2cc(-c3ccc4cn[nH]c4c3)nc(Nc3ccc(N4CCOCC4)cc3)c2n1 [Entospletinib] (top concentration tested 5000 nM) | 0 | 0 | 0 | 0
25 | c1ccc(Cn2c(-c3ccc(OC[C@H](C4CCNCC4)n4c(-c5ccccc5)nc5ccccc54)cc3)nc3ccccc32)cc1 [deltarasin] (top concentration tested 10000 nM) | 7.78 | 8.33 | 7.04 | 8.74
26 | CC[C@]1(O)C[C@@H]2CN(CCc3c([nH]c4ccccc34)[C@@](C(=O)OC)(c3cc4c(cc3OC)N(C)[C@H]3[C@@](O)(C(=O)OC)[C@H](OC(C)=O)[C@]5(CC)C=CCN6CC[C@]43[C@@H]65)C2)C1 [Vinblastine] (top concentration tested 1000 nM) | 5.1 | 19.4 | 19.8 | 21.8
27 | O=C(O)CCCCC(CCSCc1ccccc1)SCc1ccccc1 (configuration not stated) [CPI-613] (top concentration tested 10000 nM) | 0 | 0.8 | 0.32 | 2.62
28 | CCc1cc(Nc2nccc(-c3c(-c4ccc(OC)c(C(=O)Nc5c(F)cccc5F)c4)nc4ccccn34)n2)c(OC)cc1N1CCC(N2CCN(S(C)(=O)=O)CC2)CC1 (top concentration tested 10000 nM) | 0 | 0 | 10.9 | 9.73
29 | O=c1ncn2nc(Sc3ccc(F)cc3F)ccc2c1-c1c(Cl)cccc1Cl [VX 745] (top concentration tested 10000 nM) | 0 | 0 | 4.64 | 2.43
30 | C[C@@H]1COC(Nc2ccc3ncnc(Nc4ccc(OCc5nccs5)c(Cl)c4)c3c2)=N1 [Varlitinib] (top concentration tested 10000 nM) | 0 | 0 | 0.4 | 0
31 | Cc1ccc2nc(CN(CCN(Cc3nc4ccc(C)cc4[nH]3)Cc3nc4ccc(C)cc4[nH]3)Cc3nc4ccc(C)cc4[nH]3)[nH]c2c1 (top concentration tested 50000 nM) | 3.51 | 5.64 | 4.22 | 3.52
32 | FC(F)(F)c1ccc(/C=C/c2nc(COc3ccc(CCCCn4ccnn4)cc3)co2)cc1 [Mubritinib] (top concentration tested 1000 nM) | 0 | 0.57 | 8.41 | 5.94
33 | O=C(Cc1ccc(-c2ccc(OCCN3CCOCC3)cc2)cn1)NCc1ccccc1 [KX2-391] (top concentration tested 10000 nM) | 4.02 | 19.6 | 19.9 | 23.2
34 | COc1cc(O)c2c(c1)/C=C/C[C@H](O)[C@H](O)C(=O)/C=C\C[C@H](C)OC2=O [(5Z)-7-Oxozeaenol] (top concentration tested 10000 nM) | 2.58 | 6.67 | 3.74 | 4.51
35 | CO[C@H]1C(=O)[C@]2(C)[C@@H](OC)C[C@H]3OC[C@@]3(OC(C)=O)[C@H]2[C@H](OC(=O)c2ccccc2)[C@]2(O)C[C@H](OC(=O)[C@H](O)[C@@H](NC(=O)OC(C)(C)C)c3ccccc3)C(C)=C1C2(C)C [Cabazitaxel] (top concentration tested 1000 nM) | 4.14 | 16.3 | 26.2 | 28.6
36 | Nc1nc(F)nc2c1ncn2[C@@H]1O[C@H](CO)[C@@H](O)[C@@H]1O [Fludarabine] (top concentration tested 10000 nM) | 0 | 0 | 0.19 | 3.07
37 | CC1(C)CCC(c2ccc(Cl)cc2)=C(CN2CCN(c3ccc(C(=O)NS(=O)(=O)c4ccc(N[C@H](CCN5CCOCC5)CSc5ccccc5)c(S(=O)(=O)C(F)(F)F)c4)cc3)CC2)C1 [Navitoclax] (top concentration tested 10000 nM) | 0 | 0 | 0 | 0
38 | CCS(=O)(=O)N1CC(CC#N)(n2cc(-c3ncnc4[nH]ccc34)cn2)C1 [Baricitinib] (top concentration tested 2500 nM) | 0 | 0.42 | 2.8 | 1.02
39 | Oc1ncnc2[nH]ncc12 [Allopurinol] (top concentration tested 10000 nM) | 0 | 0 | 3.38 | 0.7
40 | CCN(CC)C(=S)SSC(=S)N(CC)CC [Disulfiram] (top concentration tested 100000 nM) | 30.9 | 30.4 | 31.1 | 30.2
41 | Cc1cc(Nc2cc(N3CCN(C)CC3)nc(/C=C/c3ccccc3)n2)n[nH]1 [ENMD-2076] (top concentration tested 10000 nM) | 0.61 | 5.35 | 9.67 | 10.7
42 | CNC(=O)c1cccc(-c2ccc3c(N4CCOC[C@@H]4C)nc(N4CCOC[C@@H]4C)nc3n2)c1 [AZD2014] (top concentration tested 10000 nM) | 0 | 4.19 | 18 | 20.1
43 | CNC(=O)c1ccccc1Nc1cc(Nc2ccc(N3CCOCC3)cc2OC)ncc1C(F)(F)F [VS-4718] (top concentration tested 10000 nM) | 0 | 0.44 | 8.98 | 7.27
